Test results taken from PMC11286508, “Repurposing pexmetinib as an inhibitor of TKI-resistant BCR::ABL1” (Leukemia, 2024).

Experiments:
[1] = system: T1, BCR::ABL1 (Ba/F3 isogenic cells); assay: Ba/F3 MTS viability assay; format: cell-based; details: growth of BCR::ABL1-dependent Ba/F3 cells; stated gain
T1 construct: BCR::ABL1 fusion oncoprotein, one polypeptide (BCR N-terminal, ABL1 C-terminal); expressed in murine Ba/F3 cells by electroporation; with Breakpoint cluster region protein

[2] = system: T1, BCR::ABL1 (Ba/F3 isogenic cells); assay: Ba/F3 MTS viability assay; format: cell-based; details: growth of BCR::ABL1-dependent Ba/F3 cells; parental Ba/F3 + IL-3 as control

Cc1ccc(-n2nc(C(C)(C)C)cc2NC(=O)NCc2cc(F)ccc2Oc2ccc3c(cnn3CCO)c2)cc1 [pexmetinib]
IC50 [1]: 2099 nM
IC50 [2]: 411 nM
